The nature of this data set: Evaluation of skin permeability of drug by iontophoresis in a vertical Franz cell. In kind it is in vitro ADME, hairless rat (HWY/Slc). The procedure: The excised abdominal skin of a depilated male hairless rat (HWY/Slc, SPF, 5 weeks old) was punched into a 3.2 cm diameter circle and set in a vertical Franz cell. To the donor chamber of the Franz cell, 1.5 mL of a 0.5 wt % lanreotide acetate solution was added as a drug 31, and a zinc plate (0.5 cm×2 cm×0.5 mm) was immersed therein to form an anode 21. PBS was used as a receptor solution in the receptor chamber, and a silver/silver chloride rod (11 cm in length, 1 mm q in diameter) was inserted from the sampling port to form a cathode 22. The zinc plate and the silver/silver chloride rod were connected to the same power supply 10 and control unit 50 as those used in the skin irritability evaluation described above.
Example 4: A pulse current with a frequency of […], a period of 100 ms, a duty ratio of 50%, a rectangular waveform, and a current density of 0.35 mA/cm^2 was applied.
Comparative Example 6: Instead of a pulse current, a current with a substantially constant current value and a current density of 0.35 mA/cm^2 was applied.
Comparative Example 7: No current was applied.
In order to match the total time of current application (total amount of applied current), the current was applied for 6 hours in Example 4 and for 3 hours in Comparative Example 6. Example 4 and Comparative Examples 6 to 7 were all conducted with n=3.
Three items were evaluated: the cumulative amount of drug permeated, the permeation rate, and the relationship between the cumulative permeation amount and the quantity of electricity.
The receptor solution was sampled every hour, the amount of drug permeated through the skin was quantified by high-performance liquid chromatography (HPLC), and the above three items were evaluated with time. In Comparative Example 6, even after the end of the current application, the sampling was continued until 6 hours elapsed from the start of the test, as in Example 4 and Comparative Example 7. The HPLC measurement conditions are shown below.

From US20260021296A1, “ION[…]” (KANEKA CORPORATION, priority 2023, published 2026) come the findings set out here.

For `CC(C)[C@@H]1NC(=O)[C@H](CCCCN)NC(=O)[C@@H](Cc2c[nH]c3ccccc23)NC(=O)[C@H](Cc2ccc(O)cc2)NC(=O)[C@@H](NC(=O)[C@H](N)Cc2ccc3ccccc3c2)CSSC[C@@H](C(=O)N[C@H](C(N)=O)[C@@H](C)O)NC1=O` [lanreotide acetate], the “time from start of test at which permeation of the drug through the skin was observed” value is given as “about 2 hours” (Comparative Example 6: substantially constant current 0.35 mA/cm^2, applied 3 hours, 0.5 wt % solution, n=3) and “about 2 hours” (Example 4: pulse current 5 Hz, duty ratio 50%, rectangular waveform, 0.35 mA/cm^2, applied 6 hours, 0.5 wt % solution, n=3). The “drug skin permeability (rank among current conditions, FIGS. 8 and 9)” value runs as follows: (Comparative Example 7: no current applied) “lowest”; (Example 4: pulse current 5 Hz, duty ratio 50%, 0.35 mA/cm^2) “highest”. For the setting “Comparative Example 7: no current applied, 0.5 wt % solution, n=3”, the “time from start of test until which permeation of the drug through the skin was not observed” value is at least 4 h. Also, the “cumulative permeation amount of Example 4 relative to Comparative Example 6 at the same quantity of electricity (final)” value (pulse current (Example 4) versus constant current (Comparative Example 6), 0.35 mA/cm^2, FIG. 10) was at least 5 times.
